Laboratory results as given in patent US11584763B2, “Chromenopyridine derivatives as phosphatidylinositol phosphate kinase inhibitors” (HIBERCELL, INC., priority 2017, dated 2023).
pIC50: −log10 of the molar value.

Tests used:
Format in all cases: biochemical
PIP4K2B = target: T1, PIP4K2B (Homo sapiens, UniProt P78356); test: Trans-FI P kinase assay PIP4K2B (PIP4KtypeIIB inhibition assay); settings: compounds listed under IC50 bin headings; 100 uM GTP; read-out: Trans-FI P kinase assays: PIP4K2B IC50
T1 construct: made in house; host or cells: E. coli
T1 sequence (P78356 1-416): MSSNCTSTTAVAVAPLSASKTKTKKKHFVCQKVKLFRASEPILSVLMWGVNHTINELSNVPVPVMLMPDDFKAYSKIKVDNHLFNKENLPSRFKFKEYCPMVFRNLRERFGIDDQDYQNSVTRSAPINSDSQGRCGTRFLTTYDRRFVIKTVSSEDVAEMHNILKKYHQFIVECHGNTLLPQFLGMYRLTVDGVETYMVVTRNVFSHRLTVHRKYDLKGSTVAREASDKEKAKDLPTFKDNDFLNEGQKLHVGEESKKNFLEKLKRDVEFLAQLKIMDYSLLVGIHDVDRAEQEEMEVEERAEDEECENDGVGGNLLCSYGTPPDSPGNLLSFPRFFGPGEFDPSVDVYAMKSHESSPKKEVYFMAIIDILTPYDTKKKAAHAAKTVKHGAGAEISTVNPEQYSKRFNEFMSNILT
Summary of the method: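 Transcreener FI fluorescence read-out of GDP formed by E. coli-expressed GST-PIP4K2B (5 nM) using 100 uM GTP and 80 uM PI5P with DOPE carrier lipid, pH 7.3, 2 h reaction. Compounds (up to 4.8 uM) were preincubated with enzyme 1 h at 27 C; IC50 fitted from residual activity relative to no-inhibitor control.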

PIP4K 2A [1] = target: T2, PIP4K 2A (Homo sapiens, UniProt P48426); test: Kinase Assay PIP4K2 A (PIP4KtypeIIA inhibition assay); set-up: made in house; host or cells: E. coli; settings: compounds listed under IC50 bin headings
T2 sequence (P48426 1-406): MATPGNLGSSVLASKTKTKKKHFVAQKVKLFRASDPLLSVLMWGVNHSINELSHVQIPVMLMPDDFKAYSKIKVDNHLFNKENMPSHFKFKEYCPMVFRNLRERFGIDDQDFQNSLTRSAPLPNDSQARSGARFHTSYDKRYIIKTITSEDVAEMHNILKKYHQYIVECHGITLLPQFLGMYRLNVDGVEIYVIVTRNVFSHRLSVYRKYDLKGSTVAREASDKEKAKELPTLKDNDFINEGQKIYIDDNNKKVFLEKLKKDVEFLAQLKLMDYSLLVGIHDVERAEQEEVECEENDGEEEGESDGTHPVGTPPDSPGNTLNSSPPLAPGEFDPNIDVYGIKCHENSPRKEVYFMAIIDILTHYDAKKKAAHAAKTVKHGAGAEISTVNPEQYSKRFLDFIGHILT
Summary of the method: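 GST-tagged enzyme from E. coli at 0.5 nM final was preincubated with compound for 1 h at 27 C, then reacted with 10 uM ATP, 80 uM PI5P and DOPE carrier in 50 mM HEPES pH 7.3, 5% DMSO. After 1 h, ADP was measured by ADP-Glo luminescence against a calibration curve. IC50 was fitted from % residual activity.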

PIP4K 2A [2] = target: T2, PIP4K 2A; test: ADP-glo kinase assay PIP4K 2A; set-up: 4 nM PIP4K2A (full length protein, SignalChem); purchased SignalChem; settings: compounds listed under IC50 bin headings
Summary of the method: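 Inhibition was calculated versus DMSO controls from ADP-Glo luminescence and fitted to IC50 over a 10-point, threefold series. Compound was first pre-incubated 15 min at room temperature with PIP4K2A (full-length; 4 nM in the enzyme/substrate mix) and PI(5)P diC8 (100 μM in that mix). The reaction then ran for 1 h after adding 60 μM ATP solution, in MOPS pH 7.2/MgCl2/Tween buffer.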

SMILES	pIC50 (PIP4K2B)	pIC50 (PIP4K 2A [1])	pIC50 (PIP4K 2A [2])
CC1Oc2cc(N3CCCC3=O)ccc2-c2cnc(Nc3cnc4ccn(S(C)(=O)=O)c4c3)cc21 (stereo not drawn) [Example 57, 1-(5-methyl-3-((1-(methylsulfonyl)-1H-pyrrolo[3,2-b]pyridin-6-yl)amino)-5H-chromeno[4,3-c]pyridin-8-yl)pyrrolidin-2-one]	7.00 to 8.00	≥ 9.00	8.00 to 9.00
CC1Oc2cc(N3CCCC3=O)ccc2-c2cnc(Nc3cnc4c(c3)N(C(=O)C3(O)CC3)CCO4)cc21 (stereo not drawn) [Example 58, 1-(3-((1-(1-hydroxycyclopropane-1-carbonyl)-2,3-dihydro-1H-pyrido[2,3-b][1,4]oxazin-7-yl)amino)-5-methyl-5H-chromeno[4,3-c]pyridin-8-yl)pyrrolidin-2-one]	8.00 to 9.00	≥ 9.00	≥ 9.00
CC1Oc2cc(N3CCCC3=O)ccc2-c2cnc(Nc3cnc4c(c3)N(C(=O)C(C)(C)O)CCO4)cc21 (stereo not drawn) [Example 59, 1-(3-((1-(2-hydroxy-2-methylpropanoyl)-2,3-dihydro-1H-pyrido[2,3-b][1,4]oxazin-7-yl)amino)-5-methyl-5H-chromeno[4,3-c]pyridin-8-yl)pyrrolidin-2-one]	8.00 to 9.00	≥ 9.00	≥ 9.00
CC1Oc2cc(N3CCCC3=O)ccc2-c2cnc(Nc3cnc4scnc4c3)cc21 (stereo not drawn) [Example 65, 1-(5-methyl-3-(thiazolo[5,4-b]pyridin-6-ylamino)-5H-chromeno[4,3-c]pyridin-8-yl)pyrrolidin-2-one]	6.00 to 7.00	8.00 to 9.00	7.00 to 8.00
COC(=O)N1CCOc2ncc(Nc3cc4c(cn3)-c3ccc(C(=O)N(C)C)cc3OC4C)cc21 (stereo not drawn) [Example 69, methyl 7-((8-(dimethylcarbamoyl)-5-methyl-5H-chromeno[4,3-c]pyridin-3-yl)amino)-2,3-dihydro-1H-pyrido[2,3-b][1,4]oxazine-1-carboxylate]	8.00 to 9.00	≥ 9.00	≥ 9.00
CC(=O)N1CCOc2ncc(Nc3cc4c(cn3)-c3ccc(C(=O)N(C)C)cc3OC4C)cc21 (stereo not drawn) [Example 70, 3-((1-acetyl-2,3-dihydro-1H-pyrido[2,3-b][1,4]oxazin-7-yl)amino)-N,N,5-trimethyl-5H-chromeno[4,3-c]pyridine-8-carboxamide]	8.00 to 9.00	≥ 9.00	≥ 9.00
CC1Oc2cc(C(=O)N(C)C)ccc2-c2cnc(Nc3cnc4c(c3)N(S(C)(=O)=O)CCO4)cc21 (stereo not drawn) [Example 71, N,N,5-trimethyl-3-((1-(methylsulfonyl)-2,3-dihydro-1H-pyrido[2,3-b][1,4]oxazin-7-yl)amino)-5H-chromeno[4,3-c]pyridine-8-carboxamide]	8.00 to 9.00	≥ 9.00	≥ 9.00
CC1(C)Oc2cc(N3CCCC3=O)ccc2-c2cnc(Nc3cnc4c(c3)N3C(=O)CC[C@H]3CO4)cc21 [Example 73, (S)-2-((5,5-dimethyl-8-(2-oxopyrrolidin-1-yl)-5H-chromeno[4,3-c]pyridin-3-yl)amino)-6,6a,7,8-tetrahydro-9H-pyrido[2,3-b]pyrrolo[1,2-d][1,4]oxazin-9-one]	8.00 to 9.00	≥ 9.00	≥ 9.00

Next, values leading:

pIC50 (PIP4K2B)	pIC50 (PIP4K 2A [1])	pIC50 (PIP4K 2A [2])	SMILES
7.00 to 8.00	≥ 9.00	8.00 to 9.00	CC1Oc2cc(N3CCCC3=O)ccc2-c2cnc(Nc3cncc(N4CCNC4=O)c3)cc21 (stereo not drawn) [Example 55, 1-(5-((5-methyl-8-(2-oxopyrrolidin-1-yl)-5H-chromeno[4,3-c]pyridin-3-yl)amino)pyridin-3-yl)imidazolidin-2-one]
8.00 to 9.00	≥ 9.00	≥ 9.00	CC1Oc2cc(N3CCCC3=O)ccc2-c2cnc(Nc3cncc(N4CCN(Cc5cscn5)C4=O)c3)cc21 (stereo not drawn) [Example 56, 1-(5-((5-methyl-8-(2-oxopyrrolidin-1-yl)-5H-chromeno[4,3-c]pyridin-3-yl)amino)pyridin-3-yl)-3-(thiazol-4-ylmethyl)imidazolidin-2-one]
8.00 to 9.00	≥ 9.00	≥ 9.00	CC(O)C(=O)N1CCOc2ncc(Nc3cc4c(cn3)-c3ccc(N5CCCC5=O)cc3OC4C)cc21 (stereo not drawn) [Example 60, 1-(3-((1-(2-hydroxypropanoyl)-2,3-dihydro-1H-pyrido[2,3-b][1,4]oxazin-7-yl)amino)-5-methyl-5H-chromeno[4,3-c]pyridin-8-yl)pyrrolidin-2-one]
8.00 to 9.00	≥ 9.00	≥ 9.00	CC1Oc2cc(N3CCCC3=O)ccc2-c2cnc(Nc3cnc4c(c3)N(C(=O)CO)CCO4)cc21 (stereo not drawn) [Example 61, 1-(3-((1-(2-hydroxyacetyl)-2,3-dihydro-1H-pyrido[2,3-b][1,4]oxazin-7-yl)amino)-5-methyl-5H-chromeno[4,3-c]pyridin-8-yl)pyrrolidin-2-one]
7.00 to 8.00	≥ 9.00	8.00 to 9.00	CC1Oc2cc(N3CCCC3=O)ccc2-c2cnc(Nc3cnc4c(c3)OCCO4)cc21 (stereo not drawn) [Example 62, 1-(3-((2,3-dihydro-[1,4]dioxino[2,3-b]pyridin-7-yl)amino)-5-methyl-5H-chromeno[4,3-c]pyridin-8-yl)pyrrolidin-2-one]
6.00 to 7.00	8.00 to 9.00	8.00 to 9.00	CC1Oc2cc(N3CCCC3=O)ccc2-c2cnc(Nc3cnc4nccnc4c3)cc21 (stereo not drawn) [Example 63, 1-(5-methyl-3-(pyrido[2,3-b]pyrazin-7-ylamino)-5H-chromeno[4,3-c]pyridin-8-yl)pyrrolidin-2-one]
6.00 to 7.00	8.00 to 9.00	7.00 to 8.00	CC1Oc2cc(N3CCCC3=O)ccc2-c2cnc(Nc3cnc4cccnc4c3)cc21 (stereo not drawn) [Example 64, 1-(3-((1,5-naphthyridin-3-yl)amino)-5-methyl-5H-chromeno[4,3-c]pyridin-8-yl)pyrrolidin-2-one]
8.00 to 9.00	≥ 9.00	≥ 9.00	CC1Oc2cc(C(=O)N(C)C)ccc2-c2cnc(Nc3cnc4c(c3)N(C(=O)C(C)(C)C)CCO4)cc21 (stereo not drawn) [Example 67, N,N,5-trimethyl-3-((1-pivaloyl-2,3-dihydro-1H-pyrido[2,3-b][1,4]oxazin-7-yl)amino)-5H-chromeno[4,3-c]pyridine-8-carboxamide]
8.00 to 9.00	≥ 9.00	≥ 9.00	CC1Oc2cc(C(=O)N(C)C)ccc2-c2cnc(Nc3cnc4c(c3)N(C(=O)C3CC3)CCO4)cc21 (stereo not drawn) [Example 68, 3-((1-(cyclopropanecarbonyl)-2,3-dihydro-1H-pyrido[2,3-b][1,4]oxazin-7-yl)amino)-N,N,5-trimethyl-5H-chromeno[4,3-c]pyridine-8-carboxamide]
8.00 to 9.00	≥ 9.00	8.00 to 9.00	CC1Oc2cc(C(=O)N(C)C)ccc2-c2cnc(Nc3cnc4c(c3)N(S(=O)(=O)C3CC3)CCO4)cc21 (stereo not drawn) [Example 72, 3-((1-(cyclopropylsulfonyl)-2,3-dihydro-1H-pyrido[2,3-b][1,4]oxazin-7-yl)amino)-N,N,5-trimethyl-5H-chromeno[4,3-c]pyridine-8-carboxamide]
8.00 to 9.00	≥ 9.00	8.00 to 9.00	O=C1CCCN1c1ccc2c(c1)OCc1cc(Nc3cnc4c(c3)N(S(=O)(=O)C3CC3)CCO4)ncc1-2 [Example 74, 1-(3-((1-(cyclopropylsulfonyl)-2,3-dihydro-1H-pyrido[2,3-b][1,4]oxazin-7-yl)amino)-5H-chromeno[4,3-c]pyridin-8-yl)pyrrolidin-2-one]
